Source: patent US12508280B2, “Formulations for improving gut health” (DSM IP ASSETS B.V., priority 2018, dated 2025)

Tests used:
Type in all cases: cell-based, human
[1] = tested on: colonic microbiota (fecal inoculum of two healthy adults); assay: Microbiome diversity, alpha and beta (second set)
Protocol: (§1) In a second set of in vitro experiments, at the start of the short-term colonic incubations, the test ingredients were added to nutritional medium containing basal nutrients present in the colon (e.g. host-derived glycans such as mucin). Three doses were tested per product. The nutritional medium used for this particular project was again supplemented with NaCl, MgSO4, CaCl2, hemin and bile salts, and with carbon sources glucose, starch and cellobiose. A blank, containing the same nutritional medium as that used for the product incubations, but without product addition, was included for each donor. In doing so, an assessment can be made of the background activity of the bacterial community, which results from fermentation of compounds in the nutritional medium. As a source of the colonic microbiota a fecal inoculum of two healthy adults was added. Incubations were performed for 48 h at 37′C, under shaking (90 rpm) and anaerobic conditions and protected from light. […] For the second set of in vitro experiments, two techniques were combined according to Vandeputte et al.

[2] = tested on: colonic microbiota (fecal inoculum of two healthy adults); assay: 16S-targeted Illumina sequencing with flow cytometry, taxa abundance (second set); details: 24 h fermentation
Protocol: as §1

[3] = tested on: fecal inoculum of two healthy adults; assay: Short-term colonic incubations, SCFA production (second set); details: 48 h fermentation
Protocol: In a second set of in vitro experiments, at the start of the short-term colonic incubations, the test ingredients were added to nutritional medium containing basal nutrients present in the colon (e.g. host-derived glycans such as mucin). Three doses were tested per product. The nutritional medium used for this particular project was again supplemented with NaCl, MgSO4, CaCl2, hemin and bile salts, and with carbon sources glucose, starch and cellobiose. A blank, containing the same nutritional medium as that used for the product incubations, but without product addition, was included for each donor. In doing so, an assessment can be made of the background activity of the bacterial community, which results from fermentation of compounds in the nutritional medium. As a source of the colonic microbiota a fecal inoculum of two healthy adults was added. Incubations were performed for 48 h at 37'C, under shaking (90 rpm) and anaerobic conditions and protected from light. […] Each compound was tested in three different concentrations; an overview is given in Table 2, below: Short chain fatty acids (SCFA) are an assessment of the microbial carbohydrate metabolism (acetate, propionate and butyrate) or protein metabolism (branched SCFA) and can be compared to typical fermentation patterns for normal GI microbiota. Samples for SCFA analysis were analyzed after 0, 6, 24 and 48 h of incubation for both set of in vitro experiments, above. SCFA were extracted from the samples with diethyl ether, after the addition of 2-methyl hexanoic acid as an internal standard. […], Belgium), a flame ionization detector and a split injector. The injection volume was […] and the temperature profile was set from 110 to 160° C., with a temperature increase of 6° C. min-1. […] The production of unbranched and branched SCFA was calculated by summing the molar concentrations of acetate, propionate, butyrate, valerate and caproate, and summing isobutyrate, isovalerate and isocaproate molar concentrations, respectively. The total SCFA production was defined as the sum of unbranched and branched SCFA.

Compound: Calcium D-Pantothenate [vitamin B5]
- alpha-diversity (Shannon diversity index) ([1]; 0.2× dose, donor D): increases alpha-diversity
- beta-diversity (Bray-Curtis distance to control) ([1]; 5× dose, both donors): increases beta-diversity
- alpha-diversity (Shannon diversity index) ([1]; 5× dose, donor D): increases alpha-diversity
- Akkermansiaceae relative abundance ([2]; 0.2× dose, donor D): increase Akkermansiaceae relative abundance
- Faecalibacterium prausnitzii relative abundance ([2]; 0.2× dose, donor D): increase Faecalibacterium prausnitzii relative abundance
- Veillonellaceae relative abundance ([2]; 0.2× dose, donor D): increase Veillonellaceae relative abundance
- Erysipelotrichaceae relative abundance ([2]; 1× dose, donor D): increase Erysipelotrichaceae relative abundance
- Faecalibacterium prausnitzii relative abundance ([2]; 1× dose, donor D): increase Faecalibacterium prausnitzii relative abundance
- Bifidobacteriaceae relative abundance ([2]; 5× dose, both donors): increase Bifidobacteriaceae relative abundance
- Desulfovibrionaceae relative abundance ([2]; 5× dose, donor C): decrease Desulfovibrionaceae relative abundance
- Faecalibacterium prausnitzii relative abundance ([2]; 5× dose, donor D): increase Faecalibacterium prausnitzii relative abundance
- propionate production ([3]; 0.2× dose, donor C): increase propionate production
- branched SCFA production ([3]; 5× dose, both donors): decrease branched SCFA production

Compound: CC1=C(/C=C/C(C)=C/C=C/C(C)=C/C=C/C=C(C)/C=C/C=C(C)/C=C/C2=C(C)CCCC2(C)C)C(C)(C)CCC1 [β-carotene]
- beta-diversity (Bray-Curtis distance to control) ([1]; 0.2× dose, donor D): increases beta-diversity
- beta-diversity (Bray-Curtis distance to control) ([1]; 1× dose, both donors): increases beta-diversity
- beta-diversity (Bray-Curtis distance to control) ([1]; 1× dose, donor D): increases beta-diversity
- beta-diversity (Bray-Curtis distance to control) ([1]; 5× dose, both donors): increases beta-diversity
- Bifidobacteriaceae relative abundance ([2]; 1× dose, both donors): increase Bifidobacteriaceae relative abundance
- Clostridiaceae relative abundance ([2]; 1× dose, donor C): increase Clostridiaceae relative abundance
- Prevotellaceae relative abundance ([2]; 1× dose, donor C): increase Prevotellaceae relative abundance
- Coriobacteriaceae relative abundance ([2]; 1× dose, donor D): increase Coriobacteriaceae relative abundance
- Faecalibacterium prausnitzii relative abundance ([2]; 1× dose, donor D): increase Faecalibacterium prausnitzii relative abundance
- Veillonellaceae relative abundance ([2]; 1× dose, donor D): increase Veillonellaceae relative abundance
- Akkermansiaceae relative abundance ([2]; 5× dose, both donors): increase Akkermansiaceae relative abundance
- Bifidobacteriaceae relative abundance ([2]; 5× dose, both donors): increase Bifidobacteriaceae relative abundance
- Desulfovibrionaceae relative abundance ([2]; 5× dose, both donors): decrease Desulfovibrionaceae relative abundance
- Eggerthellaceae relative abundance ([2]; 5× dose, both donors): increase Eggerthellaceae relative abundance
- Barnesiellaceae relative abundance ([2]; 5× dose, donor D): increase Barnesiellaceae relative abundance
- Coriobacteriaceae relative abundance ([2]; 5× dose, donor D): increase Coriobacteriaceae relative abundance
- Faecalibacterium prausnitzii relative abundance ([2]; 5× dose, donor D): increase Faecalibacterium prausnitzii relative abundance
- Veillonellaceae relative abundance ([2]; 5× dose, donor D): increase Veillonellaceae relative abundance
- butyrate production ([3]; 0.2× dose, donor C): increase butyrate production
- acetate production ([3]; 1× dose, both donors): increase acetate production
- butyrate production ([3]; 1× dose, both donors): increase butyrate production
- total SCFA production ([3]; 1× dose, both donors): increase total SCFA production
- propionate production ([3]; 1× dose, donor C): increase propionate production
- acetate production ([3]; 5× dose, both donors): increase acetate production
- total SCFA production ([3]; 5× dose, both donors): increase total SCFA production
- propionate production ([3]; 5× dose, donor C): increase propionate production
